In patent US6673965B1, “Hydroxamic acid derivative as inhibitor of the formation of soluble human CD23” (SmithKline Beecham P.L.C., priority 1999, dated 2004):
Several values for one entry are separate records, joined by “and”; a condition that tells them apart may be missing. Identical values can stand only once. Like-named read-outs stand apart in the source and are kept apart here.

Experiments:
[1] = i.v. pharmacokinetic parameters and oral bioavailability in male Cynomolgus monkeys; assay type: in vivo
Description: (§1) Procedure 4: The bioavailability of test compounds was investigated using the following bio-equivalence studies.
A Study to Estimate the i.v. Pharmacokinetic Parameters and Oral Bioavailability in Male Cynomolgus Monkeys
This study was conducted using a crossover design on two separate studv days, seven days apart. Three male Cynomolgus monkeys were used for this study. On both study days, a catheter was placed in a saphenous vein for collection of blood samples. On study day one, a catheter also was temporarily placed in a contralateral saphenous vein for i.v. infusion.
(§2) On study day one, each animal (fasted) received test compound (2.0 umol/kg target dose) as a 1-h intravenous infusion (4.0 mL/kg). The dose solution was prepared in 20% aqueous Encapsin® (pH=8.0) and contained 1% DMSO. Encapsin® (Cerestar USA Inc., Hammond, Ind.) is hydroxypropyl-beta-cyclodextrin, a cyclic oligosaccharide (7 glucose units) used to enhance solubility in the preparation of dose solutions that otherwise would require formulation using non-aqueous solvents.
On study day two, each animal (fasted) received test compound (6.0 umol/kg target dose) by oral gavage (8.0 mL/kg). The dose solution was prepared in 5% aqueous succinated porcine gelatin (pH=8.0) and contained 1% DMSO.
Blood samples were obtained from the femoral vein catheter; plasma was isolated by centrifugation. Plasma concentrations of test compound were quantified by LC/MS/MS (LLQ=10 ng/mL). Noncompartmental methods were used for pharmacokinetic analysis of plasma concentration versus time data.

[2] = tested on: release of soluble CD23 from RPMI 8866 cell plasma membranes; test: RPMI 8866 cell membrane CD23 cleavage activity assay; assay type: biochemical, human; conditions: RPMI 8866 membranes, 37° C., sCD23 by EIA; read-out: IC50 (50% inhibition of production of sCD23)
Description: Procedure 1: The ability of test compounds to inhibit the release of soluble CD23 was investigated by use of the following procedure.
RPMI 8866 Cell Membrane CD23 Cleavage Activity Assay
Plasma membranes from RPMI 8866 cells, a human Epstein-Barr virus transformed B-cell line (Sarfati et al., Immunology 60 [1987] 539-547) expressing high levels of CD23 are purified using an aqueous extraction method. Cells resuspended in homogenization buffer (20 mM HEPES pH 7.4, 150 mM NaCl, 1.5 mM MgCl2, 1 mM DTT) are broken by N2 cavitation in a Parr bomb and the plasma membrane fraction mixed with other membranes is recovered by centrifugation at 10,000×g. […]
The fractionated membranes are incubated at 37° C. for times up to 4 hrs to produce fragments of CD23 which are separated from the membrane by filtration in 0.2 micron Durapore filter plates (Millipore) after quenching the assay with 5 uM Preparation 1 from P 30994. sCD23 released from the membrane is determined using the EIA kit from The Binding Site (Birmingham, UK) or a similar one utilizing MHM6 anti-CD23 mAb [Rowe et al., Int. […] The amount of soluble CD23 made by 0.5 ug membrane protein in a total volume of 50 ul phosphate-buffered saline is measured by EIA and compared to the amount made in the presence of various concentrations of inhibitors. […]

[3] = tested on: TNFα release from human monocytes; test: Inhibition of release of TNFα from human monocytes stimulated by LPS; assay type: cell-based; conditions: at 10 uM; LPS 200 ng/ml, 18-20 hrs
Description: Procedure 3: The ability of test compounds to inhibit TNF release was investigated using the following procedure.
Assay for Inhibition of Release of TNFα From Human Monocytes Stimulated by Lipopolysaccharide (LPS) Endotoxin
Human monocytes, cultured in RPMI 1640 medium supplemented with 10% fetal calf serum, are centrifuged at 1000×g for 5 min and then resuspended in medium at 2×10^6 cells/ml. The cell suspension is aliquoted in 24 well plates, 1 ml per well. Compounds to be tested are dissolved in neat dimethyl sulfoxide (DMSO) and added to culture with the final DMSO concentration at 0.1%. Compounds are added to cells in triplicate wells. TNF α release is stimulated by addition of LPS to the cells at a final concentration of 200 ng/ml. Appropriate control cultures are set up in triplicates also. The plates are incubated for 18-20 hrs at 37° C., 5% CO2, then centrifuged at 1000×g for 5 min. A specific ELISA for human TNFα (SmithKline Beecham) is used to measure TNF levels in the cell-free culture supernatants.

[4] = i.v. pharmacokinetic parameters and oral bioavailability in male Sprague Dawley rat; assay type: in vivo; conditions: for half-life: rat, 2 mg/kg, two-compartment model
Description: as §1
A Study to Estimate the i.v. Pharmacokinetic Parameters and Oral Bioavailability in Male Sprague Dawley Rat
This study was carried out using a crossover design on four separate study days. Three rats received surgically-implanted femoral vein catheters for infusion of test molecules at least three days prior to the start of the study. All doses in this study were prepared using crystalline test compound.
On study day one, the animals (fed) received test compound as a 30-min intravenous infusion at a target dosage of 4.0 umol/kg (4.0 mL/kg). The dose solution was prepared in 20% aqueous Encapsin® (pH=8.0) and contained 1% DMSO. Encapsin® (Cerestar USA Inc., Hammond, Ind.) is hydroxypropyl-beta-cyclodextrin, a cyclic oligosaccharide used to enhance solubility of compounds that otherwise would require formulation using non-aqueous solvents.
On study day two, the animals (fasted) received test compound as a solution at a target dosage of 8 umol/kg by oral gavage (16 mL/kg). The dose solution was prepared in 5% aqueous succinated porcine gelatin (pH=7.5) and contained 1% DMSO. Blood samples were collected from a lateral tail vein. A 25-uL aliquot of each whole blood sample was added to 25 uL of water and allowed to stand on ice for approximately 5 min to facilitate complete hemolysis; samples then were stored frozen until analvsis. Blood concentrations of test compound were quantified by LC/MS/MS (LLQ=10.0 ng/mL). […] Various compartmental models and weighting paradigms were employed; a two-compartment model with first-order elimination from the central compartment and iterative least squares weighting with a weight of 1/Y^2 provided the best fit to the observed data, according to standard model selection criteria (i.e., Akaike's Information Criterion, Schwartz Criterion, and sum of squared residuals). Pharmacokinetic parameters were calculated using the best-fit compartmental model; all calculations that required the use of AUC values (including bioavailability) were performed using the AUC recovered from noncompartmental analysis.

[5] = i.v. pharmacokinetic parameters and oral bioavailability in male Beagle dogs; assay type: in vivo; conditions: Dog
Description: as §1
A Study to Estimate the i.v. Pharmacokinetic Parameters and Oral Bioavailability in Male Beagle Dogs
This study was conducted using a crossover design on two separate study days, seven days apart. Three male Beagle dogs were used in this study. On each study day, a catheter was temporarily placed in a cephalic vein for blood sampling; on study day one only, a catheter was also temporarily placed in a saphenous vein for i.v. infusion.
as §2, with “animal” for “animal (fasted)”
On study day two, each animal received test compound (6.0 umol/kg target dose ) by oral gavage (8.0 mL/kg). The dose solution was prepared in 5% aqueous succinated porcine gelatin (pH=7.5) and contained 1% DMSO.
Plasma concentrations of test compound were quantified by LC/MSIMS (LLQ=10 ng/mL). Noncompartmental methods were used for analysis of plasma concentration versus time data.

[6] = Monkey, iv dose = 0.92 mg/kg, individual values, 0.92 mg/kg
[7] = male, Sprague Dawley, whole blood, iv, i.v. dose = 2.0 mg/kg
[8] = male, Beagle, plasma, iv dose = 0.96 mg/kg

Question: Which “Oral F” value ([1]; Monkey, fasted, oral gavage 2.8 mg/kg Solution vs iv 0.92 mg/kg, individual values) does the source give for `CNC(=O)[C@@H](NC(=O)[C@H](Cc1ccc2ccccc2c1)[C@H](OC(C)C)C(=O)NO)C(C)(C)C` [N′-[4-(N-hydroxyamino)-3S-isopropoxy-2R-(2-naphthylmethyl)succinyl]-S-tert-leucine methylamide] here?
Answer: 21.1% and 6.0% and 22.5%

Question: And the MRT [1, 6]?
Answer: 5.18 h and 0.992 h and 1.14 h

Question: And the T1/2 [1, 6]?
Answer: 11.5 h and 1.42 h and 3.47 h

Question: What about the Vdss [1, 6] of the same molecule?
Answer: 4.09 L/kg and 1.11 L/kg and 0.827 L/kg

Question: And the Cmax ([1]; male, cynomolgus monkey, 1-h i.v. infusion, iv dose = 0.92 mg/kg, plasma)?
Answer: 1010 ± 175 ng/mL

Question: And the clearance ([1]; male, cynomolgus monkey, plasma, iv dose = 0.92 mg/kg)?
Answer: 14.7 ± 3.6 mL/min/kg

Question: And the IC50 [2]?
Answer: 60 nM

Question: And the “effect on TNF release” value [3]?
Answer: no effect

Question: And the “Oral F” value ([4]; fasted, oral gavage 3.7 mg/kg solution vs i.v. 2.0 mg/kg)?
Answer: 50.6 ± 10.6%

Question: And the half-life ([4]; male, Sprague Dawley, whole blood, iv, i.v. dose = 2.0 mg/kg, read-out: T1/2 (α))?
Answer: 0.18 ± 0.0883 h

Question: And the half-life ([4]; male, Sprague Dawley, whole blood, iv, i.v. dose = 2.0 mg/kg, read-out: T1/2 (β))?
Answer: 3.9 ± 2.32 h

Question: What about the Cmax ([4]; male, Sprague Dawley, whole blood, iv, 30-min i.v. infusion, i.v. dose = 2.0 mg/kg, blood) of the same molecule?
Answer: 1340 ± 296 ng/mL

Question: And the MRT [4, 7]?
Answer: 2.13 h

Question: What about the clearance [4, 7] of the same molecule?
Answer: 26.4 ± 8.5 mL/min/kg

Question: What about the Vd ([4]; male, Sprague Dawley, whole blood, iv, i.v. dose = 2.0 mg/kg, read-out: Vdss) of the same molecule?
Answer: 3.25 ± 1.7 L/kg

Question: What about the T1/2 ([5]; iv dose = 0.96 mg/kg, individual values, 0.96 mg/kg) of the same molecule?
Answer: 4.2 h and 4.32 h and 0.817 h

Question: What about the “Oral F” value ([5]; oral gavage, po dose = 2.7 mg/kg vs iv 0.96 mg/kg) of the same molecule?
Answer: 29.0 ± 3.7%

Question: What about the MRT [5, 8] of the same molecule?
Answer: 1.07 h

Question: And the clearance [5, 8]?
Answer: 10.6 ± 4.5 mL/min/kg

Question: What about the Vd ([5]; male, Beagle, plasma, iv dose = 0.96 mg/kg, read-out: Vdss) of the same molecule?
Answer: 0.563 ± 0.204 L/kg

Question: What about the Cmax ([5]; male, Beagle, 1-h i.v. infusion, iv dose = 0.96 mg/kg, plasma) of the same molecule?
Answer: 1410 ± 465 ng/mL
